Experimental data: the supplement of paper PMC8671470

Test system: NOMO-1
Test: cell viability (% survival relative to DMSO control, bortezomib = 0%); higher = less cytotoxic
Settings: 10 nM; 72 h
How it was run: (§1)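 Percent survival is reported as the mean of duplicate wells. Cells from 10 AML and 5 CML lines were plated in 384-well plates containing compounds at 1, 10, 100, 1000 or 10000 nM and kept for 72 h at 37 °C in 5% CO2. Readout used CellTiter-Glo luminescence, scaled so that vehicle equals 100% and a 10 µM positive control equals 0%.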

First: COc1ccc2c(C(=S)N(C)CC(=O)O)cccc2c1C(F)(F)F [Tolrestat]
Second: CCC(=O)N1CCN(c2ccc(-n3c(=O)ccc4cnc5ccc(-c6cnc7ccccc7c6)cc5c43)cc2C(F)(F)F)CC1 [Torin1]
The cell viability of the first is higher: 107% for the first, 96.2% for the second.

Compound `CC[C@@]1(O)C(=O)OCc2c1cc1n(c2=O)Cc2cc3c(CN(C)C)c(O)ccc3nc2-1` [Topotecan] has a cell viability of 98.9%.

Same assay, conditions: 100 nM; 72 h

Going from `O[C@H]1[C@H]2[C@H](O)CCCN2C[C@H]1O` [Swainsonine] to `Cc1cn([C@H]2C[C@H](O)[C@@H](COP(=O)(O)OP(=O)(O)O)O2)c(=O)[nH]c1=O` [Thymidine diphosphate], the cell viability rises from 99.4% to 100%.

First: Cc1coc2c1C(=O)C(=O)c1c-2ccc2c1CCCC2(C)C [Tanshinone IIA]
Second: CC[C@@]1(O)C(=O)OCc2c1cc1n(c2=O)Cc2cc3c(CN(C)C)c(O)ccc3nc2-1 [Topotecan]
The cell viability of the first is higher: 102% for the first, 12.6% for the second.

Going from `CN(C)c1cc(NC(=O)CNC(C)(C)C)c(O)c2c1C[C@H]1C[C@H]3[C@H](N(C)C)C(=O)C(C(N)=O)C(=O)[C@@]3(O)C(=O)C1C2=O` (stereo partly drawn) [Tigecycline] to `COc1ccc2c(C(=S)N(C)CC(=O)O)cccc2c1C(F)(F)F` [Tolrestat], the cell viability rises from 87% to 106%.

`CCC(=O)N1CCN(c2ccc(-n3c(=O)ccc4cnc5ccc(-c6cnc7ccccc7c6)cc5c43)cc2C(F)(F)F)CC1` [Torin1] showed a cell viability of 93.4%.

Same assay, conditions: 1000 nM; 72 h

First: O[C@H]1[C@H]2[C@H](O)CCCN2C[C@H]1O [Swainsonine]
Second: Cc1cn([C@H]2C[C@H](O)[C@@H](COP(=O)(O)OP(=O)(O)O)O2)c(=O)[nH]c1=O [Thymidine diphosphate]
The cell viability of the first is lower: 94.7% for the first, 98.6% for the second.

First: Cc1coc2c1C(=O)C(=O)c1c-2ccc2c1CCCC2(C)C [Tanshinone IIA]
Second: CC[C@@]1(O)C(=O)OCc2c1cc1n(c2=O)Cc2cc3c(CN(C)C)c(O)ccc3nc2-1 [Topotecan]
The cell viability of the first is higher: 102% for the first, 2.17% for the second.

Compared with `CN(C)c1cc(NC(=O)CNC(C)(C)C)c(O)c2c1C[C@H]1C[C@H]3[C@H](N(C)C)C(=O)C(C(N)=O)C(=O)[C@@]3(O)C(=O)C1C2=O` (stereo partly drawn) [Tigecycline], `COc1ccc2c(C(=S)N(C)CC(=O)O)cccc2c1C(F)(F)F` [Tolrestat] is higher in cell viability: 101% for the first, 118% for the second.

`CCC(=O)N1CCN(c2ccc(-n3c(=O)ccc4cnc5ccc(-c6cnc7ccccc7c6)cc5c43)cc2C(F)(F)F)CC1` [Torin1] was tested, and the cell viability was 47.5%.

Same assay, conditions: 10000 nM; 72 h

Going from `O[C@H]1[C@H]2[C@H](O)CCCN2C[C@H]1O` [Swainsonine] to `Cc1cn([C@H]2C[C@H](O)[C@@H](COP(=O)(O)OP(=O)(O)O)O2)c(=O)[nH]c1=O` [Thymidine diphosphate], the cell viability rises from 94.1% to 95.8%.

Compared with `Cc1coc2c1C(=O)C(=O)c1c-2ccc2c1CCCC2(C)C` [Tanshinone IIA], `CC[C@@]1(O)C(=O)OCc2c1cc1n(c2=O)Cc2cc3c(CN(C)C)c(O)ccc3nc2-1` [Topotecan] is lower in cell viability: 91.9% for the first, 0.853% for the second.

Going from `CN(C)c1cc(NC(=O)CNC(C)(C)C)c(O)c2c1C[C@H]1C[C@H]3[C@H](N(C)C)C(=O)C(C(N)=O)C(=O)[C@@]3(O)C(=O)C1C2=O` (stereo partly drawn) [Tigecycline] to `COc1ccc2c(C(=S)N(C)CC(=O)O)cccc2c1C(F)(F)F` [Tolrestat], the cell viability falls from 99.3% to 95.5%.

With `CCC(=O)N1CCN(c2ccc(-n3c(=O)ccc4cnc5ccc(-c6cnc7ccccc7c6)cc5c43)cc2C(F)(F)F)CC1` [Torin1] the cell viability was 37.1%.

Test system: ML-2
Test: as above
Settings: 1 nM; 72 h
How it was run: as §1

Going from `O[C@H]1[C@H]2[C@H](O)CCCN2C[C@H]1O` [Swainsonine] to `Cc1cn([C@H]2C[C@H](O)[C@@H](COP(=O)(O)OP(=O)(O)O)O2)c(=O)[nH]c1=O` [Thymidine diphosphate], the cell viability falls from 97.9% to 95.6%.

First: Cc1coc2c1C(=O)C(=O)c1c-2ccc2c1CCCC2(C)C [Tanshinone IIA]
Second: CC[C@@]1(O)C(=O)OCc2c1cc1n(c2=O)Cc2cc3c(CN(C)C)c(O)ccc3nc2-1 [Topotecan]
The cell viability of the first is higher: 106% for the first, 94.6% for the second.

First: CN(C)c1cc(NC(=O)CNC(C)(C)C)c(O)c2c1C[C@H]1C[C@H]3[C@H](N(C)C)C(=O)C(C(N)=O)C(=O)[C@@]3(O)C(=O)C1C2=O (stereo partly drawn) [Tigecycline]
Second: COc1ccc2c(C(=S)N(C)CC(=O)O)cccc2c1C(F)(F)F [Tolrestat]
The cell viability of the first is higher: 118% for the first, 90.2% for the second.

For `CCC(=O)N1CCN(c2ccc(-n3c(=O)ccc4cnc5ccc(-c6cnc7ccccc7c6)cc5c43)cc2C(F)(F)F)CC1` [Torin1], the cell viability was 96.1%.

Same assay, conditions: 10 nM; 72 h

Going from `O[C@H]1[C@H]2[C@H](O)CCCN2C[C@H]1O` [Swainsonine] to `Cc1cn([C@H]2C[C@H](O)[C@@H](COP(=O)(O)OP(=O)(O)O)O2)c(=O)[nH]c1=O` [Thymidine diphosphate], the cell viability falls from 97.7% to 87.9%.

Going from `Cc1coc2c1C(=O)C(=O)c1c-2ccc2c1CCCC2(C)C` [Tanshinone IIA] to `CC[C@@]1(O)C(=O)OCc2c1cc1n(c2=O)Cc2cc3c(CN(C)C)c(O)ccc3nc2-1` [Topotecan], the cell viability falls from 111% to 84.8%.

Compared with `CN(C)c1cc(NC(=O)CNC(C)(C)C)c(O)c2c1C[C@H]1C[C@H]3[C@H](N(C)C)C(=O)C(C(N)=O)C(=O)[C@@]3(O)C(=O)C1C2=O` (stereo partly drawn) [Tigecycline], `COc1ccc2c(C(=S)N(C)CC(=O)O)cccc2c1C(F)(F)F` [Tolrestat] is higher in cell viability: 93.4% for the first, 99% for the second.

In the case of `CCC(=O)N1CCN(c2ccc(-n3c(=O)ccc4cnc5ccc(-c6cnc7ccccc7c6)cc5c43)cc2C(F)(F)F)CC1` [Torin1], the cell viability is reported as 99.7%.

Same assay, conditions: 100 nM; 72 h

Compared with `O[C@H]1[C@H]2[C@H](O)CCCN2C[C@H]1O` [Swainsonine], `Cc1cn([C@H]2C[C@H](O)[C@@H](COP(=O)(O)OP(=O)(O)O)O2)c(=O)[nH]c1=O` [Thymidine diphosphate] is lower in cell viability: 108% for the first, 95.5% for the second.

Compared with `Cc1coc2c1C(=O)C(=O)c1c-2ccc2c1CCCC2(C)C` [Tanshinone IIA], `CC[C@@]1(O)C(=O)OCc2c1cc1n(c2=O)Cc2cc3c(CN(C)C)c(O)ccc3nc2-1` [Topotecan] is lower in cell viability: 103% for the first, 0.565% for the second.

Going from `CN(C)c1cc(NC(=O)CNC(C)(C)C)c(O)c2c1C[C@H]1C[C@H]3[C@H](N(C)C)C(=O)C(C(N)=O)C(=O)[C@@]3(O)C(=O)C1C2=O` (stereo partly drawn) [Tigecycline] to `COc1ccc2c(C(=S)N(C)CC(=O)O)cccc2c1C(F)(F)F` [Tolrestat], the cell viability rises from 90.8% to 103%.

Work on `CCC(=O)N1CCN(c2ccc(-n3c(=O)ccc4cnc5ccc(-c6cnc7ccccc7c6)cc5c43)cc2C(F)(F)F)CC1` [Torin1] yielded a cell viability of 91.5%.

Same assay, conditions: 1000 nM; 72 h

First: O[C@H]1[C@H]2[C@H](O)CCCN2C[C@H]1O [Swainsonine]
Second: Cc1cn([C@H]2C[C@H](O)[C@@H](COP(=O)(O)OP(=O)(O)O)O2)c(=O)[nH]c1=O [Thymidine diphosphate]
The cell viability of the first is lower: 86.4% for the first, 96.4% for the second.

Compared with `Cc1coc2c1C(=O)C(=O)c1c-2ccc2c1CCCC2(C)C` [Tanshinone IIA], `CC[C@@]1(O)C(=O)OCc2c1cc1n(c2=O)Cc2cc3c(CN(C)C)c(O)ccc3nc2-1` [Topotecan] is lower in cell viability: 101% for the first, 0.238% for the second.

First: CN(C)c1cc(NC(=O)CNC(C)(C)C)c(O)c2c1C[C@H]1C[C@H]3[C@H](N(C)C)C(=O)C(C(N)=O)C(=O)[C@@]3(O)C(=O)C1C2=O (stereo partly drawn) [Tigecycline]
Second: COc1ccc2c(C(=S)N(C)CC(=O)O)cccc2c1C(F)(F)F [Tolrestat]
The cell viability of the first is lower: 96.4% for the first, 111% for the second.

`CCC(=O)N1CCN(c2ccc(-n3c(=O)ccc4cnc5ccc(-c6cnc7ccccc7c6)cc5c43)cc2C(F)(F)F)CC1` [Torin1] was tested, and the cell viability was 46.5%.

Same assay, conditions: 10000 nM; 72 h

First: O[C@H]1[C@H]2[C@H](O)CCCN2C[C@H]1O [Swainsonine]
Second: Cc1cn([C@H]2C[C@H](O)[C@@H](COP(=O)(O)OP(=O)(O)O)O2)c(=O)[nH]c1=O [Thymidine diphosphate]
The cell viability of the first is lower: 79.5% for the first, 106% for the second.

First: Cc1coc2c1C(=O)C(=O)c1c-2ccc2c1CCCC2(C)C [Tanshinone IIA]
Second: CC[C@@]1(O)C(=O)OCc2c1cc1n(c2=O)Cc2cc3c(CN(C)C)c(O)ccc3nc2-1 [Topotecan]
The cell viability of the first is higher: 77.6% for the first, 3.1% for the second.

Going from `CN(C)c1cc(NC(=O)CNC(C)(C)C)c(O)c2c1C[C@H]1C[C@H]3[C@H](N(C)C)C(=O)C(C(N)=O)C(=O)[C@@]3(O)C(=O)C1C2=O` (stereo partly drawn) [Tigecycline] to `COc1ccc2c(C(=S)N(C)CC(=O)O)cccc2c1C(F)(F)F` [Tolrestat], the cell viability rises from 63% to 97.8%.

With `CCC(=O)N1CCN(c2ccc(-n3c(=O)ccc4cnc5ccc(-c6cnc7ccccc7c6)cc5c43)cc2C(F)(F)F)CC1` [Torin1] the cell viability was 33.5%.

Test system: THP-1
Test: as above
Settings: 1 nM; 72 h
How it was run: as §1

Compared with `O[C@H]1[C@H]2[C@H](O)CCCN2C[C@H]1O` [Swainsonine], `Cc1cn([C@H]2C[C@H](O)[C@@H](COP(=O)(O)OP(=O)(O)O)O2)c(=O)[nH]c1=O` [Thymidine diphosphate] is lower in cell viability: 102% for the first, 99% for the second.

Going from `Cc1coc2c1C(=O)C(=O)c1c-2ccc2c1CCCC2(C)C` [Tanshinone IIA] to `CC[C@@]1(O)C(=O)OCc2c1cc1n(c2=O)Cc2cc3c(CN(C)C)c(O)ccc3nc2-1` [Topotecan], the cell viability rises from 98.4% to 98.8%.

Compared with `CN(C)c1cc(NC(=O)CNC(C)(C)C)c(O)c2c1C[C@H]1C[C@H]3[C@H](N(C)C)C(=O)C(C(N)=O)C(=O)[C@@]3(O)C(=O)C1C2=O` (stereo partly drawn) [Tigecycline], `COc1ccc2c(C(=S)N(C)CC(=O)O)cccc2c1C(F)(F)F` [Tolrestat] is lower in cell viability: 107% for the first, 93.9% for the second.

`CCC(=O)N1CCN(c2ccc(-n3c(=O)ccc4cnc5ccc(-c6cnc7ccccc7c6)cc5c43)cc2C(F)(F)F)CC1` [Torin1] showed a cell viability of 104%.

Same assay, conditions: 10 nM; 72 h

First: O[C@H]1[C@H]2[C@H](O)CCCN2C[C@H]1O [Swainsonine]
Second: Cc1cn([C@H]2C[C@H](O)[C@@H](COP(=O)(O)OP(=O)(O)O)O2)c(=O)[nH]c1=O [Thymidine diphosphate]
The cell viability of the first is higher: 102% for the first, 92.5% for the second.

Compared with `Cc1coc2c1C(=O)C(=O)c1c-2ccc2c1CCCC2(C)C` [Tanshinone IIA], `CC[C@@]1(O)C(=O)OCc2c1cc1n(c2=O)Cc2cc3c(CN(C)C)c(O)ccc3nc2-1` [Topotecan] is lower in cell viability: 110% for the first, 102% for the second.

Going from `CN(C)c1cc(NC(=O)CNC(C)(C)C)c(O)c2c1C[C@H]1C[C@H]3[C@H](N(C)C)C(=O)C(C(N)=O)C(=O)[C@@]3(O)C(=O)C1C2=O` (stereo partly drawn) [Tigecycline] to `COc1ccc2c(C(=S)N(C)CC(=O)O)cccc2c1C(F)(F)F` [Tolrestat], the cell viability falls from 100% to 94.8%.

Work on `CCC(=O)N1CCN(c2ccc(-n3c(=O)ccc4cnc5ccc(-c6cnc7ccccc7c6)cc5c43)cc2C(F)(F)F)CC1` [Torin1] yielded a cell viability of 98.5%.

Same assay, conditions: 100 nM; 72 h

Compared with `O[C@H]1[C@H]2[C@H](O)CCCN2C[C@H]1O` [Swainsonine], `Cc1cn([C@H]2C[C@H](O)[C@@H](COP(=O)(O)OP(=O)(O)O)O2)c(=O)[nH]c1=O` [Thymidine diphosphate] is lower in cell viability: 106% for the first, 95.8% for the second.

`Cc1coc2c1C(=O)C(=O)c1c-2ccc2c1CCCC2(C)C` [Tanshinone IIA] and `CN(C)c1cc(NC(=O)CNC(C)(C)C)c(O)c2c1C[C@H]1C[C@H]3[C@H](N(C)C)C(=O)C(C(N)=O)C(=O)[C@@]3(O)C(=O)C1C2=O` (stereo partly drawn) [Tigecycline] are the same in cell viability: 104% for the first, 104% for the second.

For `COc1ccc2c(C(=S)N(C)CC(=O)O)cccc2c1C(F)(F)F` [Tolrestat], the cell viability was 103%.
